Test results: patent publication US20220289724A1, “KIF18A INHIBITORS” (AMGEN INC., priority 2019, published 2022)

Molecular target: T1, Recombinant human KIF18A (1-467 His-tagged) protein (Homo sapiens, UniProt Q8NI77)
T1 construct: Recombinant human KIF18A (1-467 His-tagged) protein; His; made in house
Assay: KIF18A Enzyme Assay: microtubule-stimulated ATPase activity assay (ADP-Glo)
Assay type: biochemical
Conditions: KIF18A protein 30 nM, 30 μg/mL pig microtubules, ATP at Km 75 μM, ADP-Glo luminescence, RT
Source text: KIF18A Enzyme Assay: Microtubule-stimulated ATPase activity assay is used to measure KIF18A enzyme activity after treatment with compound. Compounds were 2-fold serially diluted in DMSO (Sigma Inc) over 22-point concentration range. Recombinant human KIF18A (1-467 His-tagged) protein was expressed using a baculovirus system and purified by affinity chromatography by Amgen Inc. Concentrations of KIF18A protein, microtubules (MT), and ATP in the reaction were optimized for standardized homogenous enzyme assay using ADP-Glorm Kinase/ATPase Assay Kit (Promega Inc). The assay measures ADP formed from the ATPase reaction. […] Concentration-response curve-fitting and IC50 determination was performed using Genedata Screener Software (Standard 15.0.1, Genedata Inc) with a four-parameter logistic regression fit model.
Table A provides data for compounds exemplified in the present application and priority document thereof, as representative compounds of the present invention, as follows: chemical name (as named by either ACD software or ChemDraw (Professional 15.0)) and biological data (IC50 in μM). Ex. […] refers to Example No.

T1 sequence (Q8NI77 1-467): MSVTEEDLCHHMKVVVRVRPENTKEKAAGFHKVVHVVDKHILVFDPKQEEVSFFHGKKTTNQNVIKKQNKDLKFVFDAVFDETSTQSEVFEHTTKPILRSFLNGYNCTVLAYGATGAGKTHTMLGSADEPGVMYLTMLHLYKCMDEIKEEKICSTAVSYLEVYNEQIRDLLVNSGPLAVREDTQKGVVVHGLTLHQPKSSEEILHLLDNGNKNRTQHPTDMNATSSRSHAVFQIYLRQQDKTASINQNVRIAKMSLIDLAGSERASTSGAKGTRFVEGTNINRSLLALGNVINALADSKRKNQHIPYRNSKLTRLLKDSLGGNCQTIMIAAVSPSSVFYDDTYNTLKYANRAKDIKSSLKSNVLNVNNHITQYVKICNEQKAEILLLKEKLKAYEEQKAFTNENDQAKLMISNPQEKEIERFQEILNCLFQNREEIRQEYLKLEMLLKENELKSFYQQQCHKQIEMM
T1 sequence (P02550 whole entry partner): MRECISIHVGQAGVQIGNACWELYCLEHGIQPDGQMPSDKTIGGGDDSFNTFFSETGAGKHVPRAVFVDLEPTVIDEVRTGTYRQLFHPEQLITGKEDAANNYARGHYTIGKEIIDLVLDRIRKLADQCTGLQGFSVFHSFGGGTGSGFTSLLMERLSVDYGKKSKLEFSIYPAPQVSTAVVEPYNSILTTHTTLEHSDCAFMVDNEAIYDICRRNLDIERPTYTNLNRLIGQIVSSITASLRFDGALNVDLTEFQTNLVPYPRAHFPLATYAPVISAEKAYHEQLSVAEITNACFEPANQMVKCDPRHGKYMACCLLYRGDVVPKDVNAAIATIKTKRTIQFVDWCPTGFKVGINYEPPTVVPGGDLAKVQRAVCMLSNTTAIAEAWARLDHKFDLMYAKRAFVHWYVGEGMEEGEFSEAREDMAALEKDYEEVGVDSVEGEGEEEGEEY
T1 sequence (P02554 whole entry partner): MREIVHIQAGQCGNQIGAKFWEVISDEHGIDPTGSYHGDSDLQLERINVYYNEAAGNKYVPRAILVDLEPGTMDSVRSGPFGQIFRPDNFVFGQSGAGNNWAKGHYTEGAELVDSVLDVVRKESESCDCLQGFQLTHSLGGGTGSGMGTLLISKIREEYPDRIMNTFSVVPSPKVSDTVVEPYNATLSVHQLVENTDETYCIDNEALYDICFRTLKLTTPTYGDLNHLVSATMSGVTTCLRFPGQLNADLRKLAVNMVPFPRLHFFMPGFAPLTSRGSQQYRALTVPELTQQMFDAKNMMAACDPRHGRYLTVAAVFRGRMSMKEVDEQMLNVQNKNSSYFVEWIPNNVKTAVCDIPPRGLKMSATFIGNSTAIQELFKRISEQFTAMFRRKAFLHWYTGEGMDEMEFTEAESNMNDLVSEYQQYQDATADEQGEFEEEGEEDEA

SMILES: CC(C)(C)NS(=O)(=O)c1cccc(NC(=O)c2ccc(S(=O)(=O)N3CCC3)cc2N2CCC3(CC2)CC3)c1 [Example 107, 4-(Azetidin-1-ylsulfonyl)-N-(3-(N-(tert-butyl)sulfamoyl)phenyl)-2-(6-azaspiro[2.5]octan-6-yl)benzamide]
- IC50: 44 nM

SMILES: CC(C)(C)NS(=O)(=O)c1cccc(NC(=O)c2ccc(S(=O)(=O)NC3CC3)cc2N2CCC3(CC2)CC3)c1 [Example 107-6, N-(3-(N-(tert-butyl)sulfamoyl)phenyl)-4-(N-cyclopropylsulfamoyl)-2-(6-azaspiro[2.5]octan-6-yl)benzamide]
- IC50: 36 nM
